In article PMC4450297, “Screening Active Compounds from Garcinia Species Native to China Reveals Novel Compounds Targeting the STAT/JAK Signaling Pathway” (BioMed Research International, 2015):

What was measured:
Experiment in all cases: Cell panel screen (CellTiter-Glo)
Format in all cases: cell-based, human
[1] = tested on: TCCSUP; details: TCCSUP (Urinary bladder), 20 micromolar, 72 hrs
Outline: (§1)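 Single-dose 20 μM (final), 72 h exposure; DMSO vehicle controls. Luminescence after 10-min reagent incubation → % growth inhibition = (untreated − treated)/(untreated − no-cell background) × 100.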

[2] = tested on: Panc 03.27; details: Panc 03.27 (Pancreas), 20 micromolar, 72 hrs
Outline: as §1

[3] = tested on: NCI-H1770; details: NCI-H1770 (Lung), 20 micromolar, 72 hrs
Outline: as §1

[4] = tested on: Colo 205; details: Colo 205, 20 micromolar, 72 hrs
Outline: as §1

[5] = tested on: NCI-H28; details: NCI-H28 (Lung), 20 micromolar, 72 hrs
Outline: as §1

[6] = tested on: HGC-27; details: HGC-27 (Stomach), 20 micromolar, 72 hrs
Outline: as §1

[7] = tested on: HEC-1-A; details: HEC-1-A (Uterus), 20 micromolar, 72 hrs
Outline: as §1

[8] = tested on: T47D; details: T47D (Breast), 20 micromolar, 72 hrs
Outline: as §1

[9] = tested on: CCF-STTG1; details: CCF-STTG1 (Brain), 20 micromolar, 72 hrs
Outline: as §1

[10] = tested on: C3A; details: C3A (Liver), 20 micromolar, 72 hrs
Outline: as §1

[11] = tested on: HCC1569; details: HCC1569 (Breast), 20 micromolar, 72 hrs
Outline: as §1

[12] = tested on: A704; details: A704 (Kidney), 20 micromolar, 72 hrs
Outline: as §1

[13] = tested on: ZR-75-30; details: ZR-75-30 (Breast), 20 micromolar, 72 hrs
Outline: as §1

[14] = tested on: NCI-H2347; details: NCI-H2347 (Lung), 20 micromolar, 72 hrs
Outline: as §1

[15] = tested on: T98G; details: T98G (Brain), 20 micromolar, 72 hrs
Outline: as §1

[16] = tested on: C8166; details: C8166 (Leukemia), 20 micromolar, 72 hrs
Outline: as §1

[17] = tested on: A498; details: A498 (listed under Lung), 20 micromolar, 72 hrs
Outline: as §1

[18] = tested on: CW-2; details: CW-2 (Colon), 20 micromolar, 72 hrs
Outline: as §1

[19] = tested on: BT-474; details: BT-474 (Breast), 20 micromolar, 72 hrs
Outline: as §1

[20] = tested on: J82; details: J82 (Urinary bladder), 20 micromolar, 72 hrs
Outline: as §1

[21] = tested on: Bel-7402; details: Bel-7402 (Liver), 20 micromolar, 72 hrs
Outline: as §1

[22] = tested on: HCC1395; details: HCC1395 (Breast), 20 micromolar, 72 hrs
Outline: as §1

[23] = tested on: HCC1599; details: HCC1599 (Breast), 20 micromolar, 72 hrs
Outline: as §1

[24] = tested on: SW13; details: SW13 (Adrenal gland), 20 micromolar, 72 hrs
Outline: as §1

[25] = tested on: HPAF-II; details: HPAF-II (Pancreas), 20 micromolar, 72 hrs
Outline: as §1

[26] = tested on: NCI-H1694; details: NCI-H1694 (Lung), 20 micromolar, 72 hrs
Outline: as §1

[27] = tested on: NCI-H524; details: NCI-H524 (Lung), 20 micromolar, 72 hrs
Outline: as §1

[28] = tested on: MSTO-211-H; details: MSTO-211-H (Lung), 20 micromolar, 72 hrs
Outline: as §1

[29] = tested on: M059J; details: M059J (Brain), 20 micromolar, 72 hrs
Outline: as §1

[30] = tested on: NCI-H1623; details: NCI-H1623 (Lung), 20 micromolar, 72 hrs
Outline: as §1

[31] = tested on: NCI-H2405; details: NCI-H2405 (Lung), 20 micromolar, 72 hrs
Outline: as §1

[32] = tested on: BT-549; details: BT-549 (Breast), 20 micromolar, 72 hrs
Outline: as §1

[33] = tested on: ChaGo-K-1; details: ChaGo-K-1 (Lung), 20 micromolar, 72 hrs
Outline: as §1

[34] = tested on: HCC1937; details: HCC1937 (Breast), 20 micromolar, 72 hrs
Outline: as §1

[35] = tested on: HT-1197; details: HT-1197 (Urinary bladder), 20 micromolar, 72 hrs
Outline: as §1

[36] = tested on: RL95; details: RL95 (Uterus), 20 micromolar, 72 hrs
Outline: as §1

Row | SMILES | Percent Inhibition [1] [%] | Percent Inhibition [2] [%] | Percent Inhibition [3] [%] | Percent Inhibition [4] [%] | Percent Inhibition [5] [%] | Percent Inhibition [6] [%] | Percent Inhibition [7] [%] | Percent Inhibition [8] [%] | Percent Inhibition [9] [%] | Percent Inhibition [10] [%] | Percent Inhibition [11] [%] | Percent Inhibition [12] [%] | Percent Inhibition [13] [%] | Percent Inhibition [14] [%] | Percent Inhibition [15] [%] | Percent Inhibition [16] [%] | Percent Inhibition [17] [%] | Percent Inhibition [18] [%] | Percent Inhibition [19] [%] | Percent Inhibition [20] [%] | other results
1 | CC(C)=CCc1c(O)c(O)cc2oc3cc(O)cc(O)c3c(=O)c12 [bn-10, 1,3,6,7-tetrahydroxy-8-(3-methylbut-2-enyl)xanthone] | 33 | -1 | 0 | 19 | 12 | 30 | 22 | 4 | 8 | 20 | 16 | -11 | 77 | 9 | 21 | 23 | 25 | 25 | -3 | 29 | Percent Inhibition [21]: 7%; Percent Inhibition [22]: 8%; Percent Inhibition [23]: 77%; Percent Inhibition [24]: 11%; Percent Inhibition [25]: -2%; Percent Inhibition [26]: 28%; Percent Inhibition [27]: -20%; Percent Inhibition [28]: 4%; Percent Inhibition [29]: 9%; Percent Inhibition [30]: -10%; Percent Inhibition [31]: -8%; Percent Inhibition [32]: -4%; Percent Inhibition [33]: 18%; Percent Inhibition [34]: 32%; Percent Inhibition [35]: 8%; Percent Inhibition [36]: 15%
2 | CC(C)=CCc1c(O)cc2oc3c(c(=O)c2c1O)C(CC=C(C)C)(CC=C(C)C)C(=O)C(O)=C3 [bn-2, Allanxanthone C] | 75 | 48 | 90 | 69 | 52 | 53 | 51 | 54 | 52 | 39 | 63 | 4 | 86 | 40 | 98 | 86 | 34 | 72 | 22 | 43 | Percent Inhibition [21]: 64%; Percent Inhibition [22]: 84%; Percent Inhibition [23]: 79%; Percent Inhibition [24]: 15%; Percent Inhibition [25]: 28%; Percent Inhibition [26]: 99%; Percent Inhibition [27]: 97%; Percent Inhibition [28]: 72%; Percent Inhibition [29]: 51%; Percent Inhibition [30]: 49%; Percent Inhibition [31]: 40%; Percent Inhibition [32]: 54%; Percent Inhibition [33]: 75%; Percent Inhibition [34]: 75%; Percent Inhibition [35]: 38%; Percent Inhibition [36]: 70%
3 | CC1(C)C=Cc2c(cc(O)c3c(=O)c4cc5c(c(O)c4oc23)OC(C)(C)C=C5)O1 [Go-16] | 44 | 20 | 25 | 4 | 9 | 28 | 11 | 20 | 22 | 22 | 11 | 17 | 47 | -8 | 29 | 13 | 12 | 17 | -6 | 23 | Percent Inhibition [21]: 15%; Percent Inhibition [22]: 68%; Percent Inhibition [23]: 41%; Percent Inhibition [24]: 6%; Percent Inhibition [25]: 15%; Percent Inhibition [26]: 5%; Percent Inhibition [27]: -35%; Percent Inhibition [28]: 34%; Percent Inhibition [29]: 31%; Percent Inhibition [30]: 33%; Percent Inhibition [31]: 27%; Percent Inhibition [32]: -5%; Percent Inhibition [33]: 9%; Percent Inhibition [34]: 25%; Percent Inhibition [35]: 35%; Percent Inhibition [36]: -8%
4 | O=C1CC(c2ccc(O)c(O)c2)Oc2cc(OC3OC(C(=O)O)C(O)C(O)C3O)cc(O)c21 (stereo not drawn) [gly-2] | -4 | 2 | -4 | -6 | -21 | 0 | -19 | -2 | 1 | -5 | -6 | -14 | 15 | -2 | -3 | -12 | -7 | -2 | -18 | -6 | Percent Inhibition [21]: -14%; Percent Inhibition [22]: 8%; Percent Inhibition [23]: -8%; Percent Inhibition [24]: -14%; Percent Inhibition [25]: -1%; Percent Inhibition [26]: -10%; Percent Inhibition [27]: -15%; Percent Inhibition [28]: 7%; Percent Inhibition [29]: -1%; Percent Inhibition [30]: 6%; Percent Inhibition [31]: -2%; Percent Inhibition [32]: -14%; Percent Inhibition [33]: -33%; Percent Inhibition [34]: -2%; Percent Inhibition [35]: -8%; Percent Inhibition [36]: 2%
5 | O=c1c2cc(O)ccc2oc2cccc(O)c12 [Gof3] | 32 | 7 | 17 | 22 | 27 | 34 | 19 | 10 | 31 | 7 | 29 | 23 | 41 | 20 | 27 | 29 | 39 | 39 | 7 | 20 | Percent Inhibition [21]: 45%; Percent Inhibition [22]: 35%; Percent Inhibition [23]: 36%; Percent Inhibition [24]: 33%; Percent Inhibition [25]: 15%; Percent Inhibition [26]: 29%; Percent Inhibition [27]: 18%; Percent Inhibition [28]: 36%; Percent Inhibition [29]: 53%; Percent Inhibition [30]: -7%; Percent Inhibition [31]: -13%; Percent Inhibition [32]: 16%; Percent Inhibition [33]: 12%; Percent Inhibition [34]: 8%; Percent Inhibition [35]: 28%; Percent Inhibition [36]: 42%
